Experimental data taken from US5298523A, “Method for treating transplant patients using mycalamide compounds” (priority 1992, dated 1994).
Values after ≈ are worked out from the molar mass of the structure shown. Like-named read-outs stand apart in the source and are kept apart here.

Experiments:
[1] = tested on: human peripheral blood lymphocytes (PBL); assay: Mitogen-induced proliferation of human peripheral blood lymphocytes; type: cell-based; details: Lymphocyte; for activity at 0.5 µg/mL: 5.0 × 10^-1 μg/ml; for activity at 0.05 µg/mL: 5.0 × 10^-2 μg/ml; for activity at 0.005 µg/mL: 5.0 × 10^-3 μg/ml; for activity at 0.0005 µg/mL: 5.0 × 10^-4 μg/ml; for activity at 50 pg/mL: 5.0 × 10^-5 μg/ml; for activity at 5 pg/mL: 5.0 × 10^-6 μg/ml; for activity at 500 fg/mL: 5.0 × 10^-7 μg/ml; for activity at 50 fg/mL: 5.0 × 10^-8 μg/ml; for activity at 5 fg/mL: 5.0 × 10^-9 μg/ml; for activity at 5e-10 µg/mL: 5.0 × 10^-10 μg/ml; for activity at 5e-11 µg/mL: 5.0 × 10^-11 μg/ml
Procedure: Preparation of human peripheral blood leukocyte (PBL) suspensions. Human peripheral blood suspensions were prepared from Leukotrap blood filters as follows: Leukotrap filters containing processed leukocytes from random, unrelated blood donors were obtained from the Indian River Blood Bank (Vero Beach, Fla.). Buffy-coat blood cell suspensions were recovered by reverse-flow phosphate-buffered saline purging and centrifugation for 15 minutes at 475× g. Buffy coats were removed, and 5 ml of the suspension was layered onto 5 ml of Histopaque gradient material. The Histopaque gradients were centrifuged at 475× g for 30 minutes. Lymphocytes were removed from the Histopaque-medium interface, and washed twice with 10 ml of PBS (Dulbecco's phosphate-buffered saline without CaCl2 and MgCl2.6H2 O). The final cell pellet was resuspended in TCM, and the cell concentration adjusted to 2×10^6 cells/ml.

[2] = tested on: allogeneic skin graft rejection, CBA mice; assay: Allogeneic skin graft rejection (BALB/c to CBA); type: in vivo, mouse; design: key to Graft Scores: 0: rejection; +: no rejection; details: 0.01 mg/kg
Procedure: Allogeneic skin grafting. The effects of mycalamide A on the rejection of allogeneic skin grafts were determined using the BALB/c→CBA skin graft model. Skin grafts were prepared from BALB/c donors as follows: donors were sacrificed by cervical dislocation and hair shaved from back, sides, and torso. A depilatory agent was used to remove any remaining hair. The prepared skin area was then swabbed with a Betadine and alcohol solution. The skin was removed by making an incision at the base of the tail, and the skin was lifted and separated from the underlying muscle in two sections. The skin was then placed in a sterile petri dish containing sterile, ice cold normal saline. A sterile, #7 cord borer was used to punch out approximately 16 graft discs from each animal skin preparation. Recipient CBA mice were anesthetized with 1.5 cc ketamine:xylamine. The back of each recipient animal was shaved and a depilatory agent used to remove excess hair. The prepared area was swabbed with Betadine:alcohol, and a small plug of skin, approximately the size of the prepared grafts, was removed by excision. The skin graft plug was then placed in the center of the excised region and the resulting transplanted area sprayed with a barrier film (liquid skin). Animals were placed one to a cage and supplied with sterile food and water, ad libitum. Mice were observed each day for signs of rejection of the graft (a shrinking and thickening of the graft with eventual sloughing).

[3] = tested on: two-way murine mixed lymphocyte response (C57BL/6J and BALB/c splenocytes); assay: Two-way murine mixed lymphocyte reaction (MLR), 3H-thymidine incorporation; type: cell-based
Procedure: Preparation of splenocyte cell suspensions. […] The resulting supernatant was then transferred to another sterile centrifuge tube, and the cell concentration adjusted to 2×10^6 cells/ml dilution with TCM.
Two way mixed lymphocyte reaction (MLR). The immunosuppressive properties of mycalamide A were evaluated using the two-way MLR, utilizing murine splenocytes and human PBL. For the murine MLR, splenocytes from C57Bl/6J and BALB/c mice were prepared as described above, and a volume of […] of each cell suspension was added together to test and control wells of microtiter plates. Wells containing 0.20 ml of each cell suspension alone served as controls.
Dilutions of the drug to be tested were prepared in absolute EtOH and further diluted to the appropriate concentration in TCM and added directly to the wells containing splenocyte combinations. Additional solvent (EtOH) control wells were also prepared by adding the equivalent percentage of EtOH to each culture well. Plates were incubated at 37° C. in a 5% CO2 humidified atmosphere for 88 hours. Following the incubation, 1.0 μCi of ^3 H-thymidine was added to each well, and the plates were returned to the incubator for 5 hours. The contents of each well were harvested onto glass-fiber filter strips, and the incorporation of ^3 H-thymidine was determined by a liquid scintillation counter. Similar conditions were utilized for MLR cultures using human peripheral blood lymphocytes prepared from unrelated donors as described above, with the exception that the initial incubation and subsequent ^3 H-thymidine pulse times were different (114 hours for initial incubation followed by a 6-hour incubation with ^3 H-thymidine). Plates were harvested in a similar manner, and ^3 H-thymidine incorporation determined as described above.

[4] = Con A, read-out: Con A, % of control
[5] = PHA, read-out: PHA, % of control

Molecule `C=C1CC(OC)(C(O)C(=O)NC2OCOC3C2OC(CC(O)CO)C(C)(C)C3OC)OC(C)C1C` (centres unmarked) [Mycalamide A, mycalamide A] has an activity at 0.5 µg/mL [1, 4] of 0%, an activity at 0.05 µg/mL [1, 4] of 0% and an activity at 0.005 µg/mL [1, 4] of 0%. It also gave an activity at 0.0005 µg/mL [1, 4] of 10%, an activity at 50 pg/mL [1, 4] of 44% and an activity at 5 pg/mL [1, 4] of 74%. The activity at 500 fg/mL [1, 4] was 78%, the activity at 50 fg/mL [1, 4] was 82% and the activity at 5 fg/mL [1, 4] was 90%. It also gave an activity at 5e-10 µg/mL [1, 4] of 99%, an activity at 5e-11 µg/mL [1, 4] of 93% and an activity at 0.5 µg/mL [1, 5] of 0%. It also gave an activity at 0.05 µg/mL [1, 5] of 0%, an activity at 0.005 µg/mL [1, 5] of 0% and an activity at 0.0005 µg/mL [1, 5] of 9%. It also gave an activity at 50 pg/mL [1, 5] of 41%, an activity at 5 pg/mL [1, 5] of 41% and an activity at 500 fg/mL [1, 5] of 40%. For the same molecule, the activity at 50 fg/mL [1, 5] was 43%, the activity at 5 fg/mL [1, 5] was 42% and the activity at 5e-10 µg/mL [1, 5] was 36%. For the same molecule, the activity at 5e-11 µg/mL [1, 5] was 47%, the IC50 ([1]; read-out: IC50, PHA stimulation of human PBL) was roughly 0.0057 ng/mL (≈ 0.0113 nM) and the “% Alive” value ([2]; Q2D × 7, 1-14 IP, D35) was 0%. For the same molecule, the “Graft Scores” value ([2]; Q2D × 7, 1-14 IP, D35) was “+”, the mean rejection time ([2]; twice daily, intraperitoneally for 14 days) was 17.8 days and the “effect on rejection of allogeneic skin grafts” value ([2]; twice daily, intraperitoneally for 14 days, in words) was “suppressed the normal rejection of allogeneic skin grafts”. It also gave an activity at 5 µg/mL ([3]; Mus musculus, Splenocyte, 5.0 × 10^0 μg/ml, read-out: % of Positive Control MLR) of 0%, an activity at 50 µg/mL ([3]; Mus musculus, Splenocyte, 5.0 × 10^1 μg/ml, read-out: % of Positive Control MLR) of 0% and an activity at 500 µg/mL ([3]; Mus musculus, Splenocyte, 5.0 × 10^2 μg/ml, read-out: % of Positive Control MLR) of 0%. For the same molecule, the activity at 0.5 µg/mL ([3]; Mus musculus, Splenocyte, 5.0 × 10^-1 μg/ml, read-out: % of Positive Control MLR) was 0%, the activity at 0.05 µg/mL ([3]; Mus musculus, Splenocyte, 5.0 × 10^-2 μg/ml, read-out: % of Positive Control MLR) was 0% and the activity at 0.005 µg/mL ([3]; Mus musculus, Splenocyte, 5.0 × 10^-3 μg/ml, read-out: % of Positive Control MLR) was 0%. The activity at 0.0005 µg/mL ([3]; Mus musculus, Splenocyte, 5.0 × 10^-4 μg/ml, read-out: % of Positive Control MLR) was 0%, the activity at 50 pg/mL ([3]; Mus musculus, Splenocyte, 5.0 × 10^-5 μg/ml, read-out: % of Positive Control MLR) was 0% and the activity at 5 pg/mL ([3]; Mus musculus, Splenocyte, 5.0 × 10^-6 μg/ml, read-out: % of Positive Control MLR) was 0%. The activity at 500 fg/mL ([3]; Mus musculus, Splenocyte, 5.0 × 10^-7 μg/ml, read-out: % of Positive Control MLR) was 0%, the activity at 50 fg/mL ([3]; Mus musculus, Splenocyte, 5.0 × 10^-8 μg/ml, read-out: % of Positive Control MLR) was 0% and the activity at 5 fg/mL ([3]; Mus musculus, Splenocyte, 5.0 × 10^-9 μg/ml, read-out: % of Positive Control MLR) was 0%. For the same molecule, the activity at 5e-10 µg/mL ([3]; Mus musculus, Splenocyte, 5.0 × 10^-10 μg/ml, read-out: % of Positive Control MLR) was 0%, the activity at 5e-11 µg/mL ([3]; Mus musculus, Splenocyte, 5.0 × 10^-11 μg/ml, read-out: % of Positive Control MLR) was 0% and the activity at 5e-12 µg/mL ([3]; Mus musculus, Splenocyte, 5.0 × 10^-12 μg/ml, read-out: % of Positive Control MLR) was 0%. The activity at 5e-13 µg/mL ([3]; Mus musculus, Splenocyte, 5.0 × 10^-13 μg/ml, read-out: % of Positive Control MLR) was 0%, the activity at 5e-14 µg/mL ([3]; Mus musculus, Splenocyte, 5.0 × 10^-14 μg/ml, read-out: % of Positive Control MLR) was 0% and the activity at 5e-15 µg/mL ([3]; Mus musculus, Splenocyte, 5.0 × 10^-15 μg/ml, read-out: % of Positive Control MLR) was 0%. The activity at 5e-16 µg/mL ([3]; Mus musculus, Splenocyte, 5.0 × 10^-16 μg/ml, read-out: % of Positive Control MLR) was 0%, the activity at 5e-17 µg/mL ([3]; Mus musculus, Splenocyte, 5.0 × 10^-17 μg/ml, read-out: % of Positive Control MLR) was 85% and the activity at 5e-18 µg/mL ([3]; Mus musculus, Splenocyte, 5.0 × 10^-18 μg/ml, read-out: % of Positive Control MLR) was 82%. The activity at 5e-19 µg/mL ([3]; Mus musculus, Splenocyte, 5.0 × 10^-19 μg/ml, read-out: % of Positive Control MLR) was 128% and the “range of concentrations that suppressed the MLR” value ([3]; murine) was 5×10^2 to 5×10^-16 μg/ml.
